Laboratory results from patent US6555714B1, “Inhibitors of hydroxyphenylpyruvate dioxygenase and an assay for identification of inhibitors” (Hoechst Aktiengesellschaft, priority 1993, dated 2003).
Several values for one entry are separate records, joined by “and”; a condition that tells them apart may be missing. Equal entries are not always repeated.

Assays:
Lemna gibba [1] = assay: Growth inhibition of Lemna; format: in vivo; conditions: for inhibition at 100 µM: 10^−4 M; for inhibition at 10 µM: 10^−5 M; for inhibition at 1 µM: 10^−6 M
Text: (§1) FEBS-Letters, 1993, 318 (2), 162-166.

[2] = target: anabolic plant HPPD (p-hydroxyphenylpyruvate dioxygenase) from maize (Zea mays, UniProt A0A1D6H1G0); format: biochemical; conditions: for IC50: Table 1 of compounds of formula (I), HPPD inhibition, IC50 is a molar concentration
Description: A modified form of the method for measuring catabolic HPPDs from human liver has been described by Lindblad (Lindblad, B. (1971) Clin. Chim. Acta 34, 113-121). End-point measurements are used in this case for detecting ^14C—CO2, which is liberated from ^14C-p-hydroxyphenylpyruvate by the enzymatic activity of HPPD.
To enrich the anabolic HPPD from plant tissues, young etiolated maize plants were homogenized in extraction buffer (20 mM phosphate buffer pH 7.0; 0.14 M KCl; 0.1 mg/ml glutathione and 1% insoluble polyvinylpyrrolidone) for 3×10 seconds, for example in a Waring blender. The extract was filtered (all other isolation steps were carried out at 4° C.) and centrifuged (20 minutes; 10,000 g). The supernatant was subjected to fractional ammonium sulfate precipitation. […] At this stage, it was possible to store the enzyme at −80° C. following dialysis in a suitable buffer, such as, for example, 20 mM phosphate buffer pH 7.0; 0.14 M KCl; 0.1 mg/ml glutathione.
The enzyme assays were performed in 20 ml polyethylene screw-top containers. Two hypodermic needles (0.9×40 mm) were pushed through the screw-top cap. One of the hypodermic needles was bent to form a hook onto which a small filter paper disk of diameter 10 mm was placed. The filter paper was moistened with 25 μl of methylbenzethonium hydroxide (Sigma). The second hypodermic needle was used for injecting start and stop solution into the screw-top container.
The enzyme reaction mix contained:
1 ml of 0.1 M phosphate buffer, pH 7.3;
2 g/l of bovine liver catalase;
100 μl of a mixture of 3 mM dichlorophenol-indophenol and
150 mM glutathione (reduced);
25 μl of acetone (or potential inhibitors dissolved in acetone) and
enzyme in a total volume of 1,635 μl.
After preincubation for 5 minutes at 30° C., the reaction was started by injecting 800 μl of ^14C-p-hydroxyphenylpyruvate. The reaction was stopped by injecting 600 μl of 1 N H2SO4, incubation was continued for 15 minutes, and the radioactivity which was liberated was determined on the small filter paper disks in a liquid scintillation counter.
as §1

[3] = tested on: plastoquinone biosynthesis in wheat; assay: Incorporation of radioactivity from 14C-tyrosine into plastoquinone in wheat (thin-layer chromatography); format: in vivo; conditions: wheat plants sprayed with 100 g/ha in screening formulation, FIG. 1
Description: Thin-layer chromatography analysis of the incorporation of radioactivity from ^14C-tyrosine into plastoquinone. […] The lipophilic metabolites of the wheat were extracted using chloroform, separated on silica gel 60 HPTLC plates using chloroform: diethyl ether (99:1), and the radioactivity was analyzed by thin-layer scanner.

Lemna gibba [4] = assay: Neutralization of the effect of SC-0051 by homogentisic acid, number of Lemna gibba plants; format: in vivo; conditions: day six
Description: HPPD catalyzes the transformation of p-hydroxyphenylpyruvate to homogentisic acid. If HPPD inhibition is responsible for the herbicidal activity of an inhibitor, then it should be possible to neutralize the herbicidal effect by supplementation with homogentisic acid. […] The plant was grown in a sterile aqueous medium supplemented as described in Table 1.
Batches of three Lemna plants in 100 ml of sterile medium were incubated for six days with sterile-filtered supplements. […] The number of newly formed plants was determined on day six.

Sequence of anabolic plant HPPD (p-hydroxyphenylpyruvate dioxygenase) from maize (A0A1D6H1G0 entry or part of it): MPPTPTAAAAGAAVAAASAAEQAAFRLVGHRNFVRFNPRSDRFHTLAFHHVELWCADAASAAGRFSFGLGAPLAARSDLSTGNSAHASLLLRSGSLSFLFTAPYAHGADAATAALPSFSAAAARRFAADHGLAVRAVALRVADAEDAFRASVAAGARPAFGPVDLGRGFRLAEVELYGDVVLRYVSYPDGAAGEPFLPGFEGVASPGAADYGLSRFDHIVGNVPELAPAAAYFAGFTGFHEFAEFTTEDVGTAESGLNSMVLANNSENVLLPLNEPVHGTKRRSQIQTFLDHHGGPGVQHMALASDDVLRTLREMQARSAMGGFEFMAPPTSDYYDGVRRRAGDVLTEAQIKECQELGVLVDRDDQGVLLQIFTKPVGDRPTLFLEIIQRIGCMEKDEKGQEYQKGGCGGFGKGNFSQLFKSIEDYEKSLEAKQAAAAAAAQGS

Compound: Cc1cc(Cl)cc(C(=O)c2ccc(S(C)(=O)=O)cc2Cl)c1O [Example No. 100, 2,5′-Dichloro-2′-hydroxy-3′-methyl-4-methylsulfonylbenzophenone]
- melting point: 175 to 180 °C
- inhibition at 100 µM (Lemna gibba [1]): 98%
- inhibition at 10 µM (Lemna gibba [1]): 96%
- inhibition at 1 µM (Lemna gibba [1]): 92%
- IC50 [2]: 6.2 nM

Compound: CS(=O)(=O)c1ccc(C(=O)c2c(O)cc(Cl)cc2Cl)c(Cl)c1 [Example No. 183, 2,2′,4′-Trichloro-6′-hydroxy-4-methylsulfonylbenzophenone]
- melting point: 123 to 126 °C and 123 to 125 °C
- inhibition at 100 µM (Lemna gibba [1]): 98%
- inhibition at 10 µM (Lemna gibba [1]): 82%
- inhibition at 1 µM (Lemna gibba [1]): 81%
- IC50 [2]: 4.8 nM

Compound: CC1(C)CON(Cc2ccccc2Cl)C1=O [clomazone, reference compound]
- Inhibition of HPPD (in words) ([2]; partially purified maize HPPD, FIG. 2): no inhibitory action

Compound: CS(=O)(=O)c1ccc(C(=O)C2C(=O)CCCC2=O)c(Cl)c1 [SC-0051, 2-(2-chloro-4-methanesulfonylbenzoyl)-1,3-cyclohexanedione]
- Plastoquinone biosynthesis (incorporation of radioactivity from tyrosine into plastoquinone) [3]: inhibited
- Number of L. gibba plants (Lemna gibba [4]; 10^−7 M SC-0051, medium supplemented with 1 mM HGA): 32
- Number of L. gibba plants (Lemna gibba [4]; 10^−7 M SC-0051, medium supplemented with 1 mM HPPD): 2
- Number of L. gibba plants (Lemna gibba [4]; 10^−7 M SC-0051, no supplementation of the medium, start three plants): 3

Compound: CS(=O)(=O)c1ccc(C(=O)c2cc(C(=O)O)ccc2O)c(Cl)c1 [compound 88]
- melting point: 254 to 256 °C
- IC50 [2]: 70 nM

Compound: 2-(2,4-Dichlorobenzoyl)-1,4-quinone [Example No. 91]
- IC50 [2]: 18 nM
